Data: the supplement of paper PMC10307832

Assays:
Test in all cases: relative viability (nuclei count vs DMSO), 5 days (fraction); higher = more cells survive
[1] = compound: C[C@]12O[C@H](C[C@]1(O)CO)n1c3ccccc3c3c4c(c5c6ccccc6n2c5c31)CNC4=O [Lestaurtinib] + N=C(N)NC(=N)NCCc1ccccc1 [Phenformin] (partner 250 µM)
Procedure, shortened: (§1)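 Lung cancer cell lines in 1536-well plates got either a single drug or a fixed anchor-drug dose together with five library-drug doses (not always all listed) in √10 steps, by pin tool, on the day after seeding. Nuclei were counted after 5 days, and relative viability is the treated-to-vehicle ratio of nuclei counts. Values are medians of duplicate plates.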

[2] = compound: C[C@]12O[C@H](C[C@]1(O)CO)n1c3ccccc3c3c4c(c5c6ccccc6n2c5c31)CNC4=O [Lestaurtinib] + CS(=O)(=O)CCNCc1ccc(-c2ccc3ncnc(Nc4ccc(OCc5cccc(F)c5)c(Cl)c4)c3c2)o1 [Lapatinib] (partner 2 µM)
Procedure, shortened: as §1

[3] = compound: C1=CC(=CC=C1C2=CC(=C(S2)NC(=O)N)C(=O)N)F [TPCA-1] + Cc1nc(Nc2ncc(C(=O)Nc3c(C)cccc3Cl)s2)cc(N2CCN(CCO)CC2)n1 [Dasatinib] (partner 0.075 µM)
Procedure, shortened: as §1

[4] = compound: C1/C(=C\C2=CC=CS2)/C(=O)/C(=C/C3=CC=CS3)/C1 + Cc1nc(Nc2ncc(C(=O)Nc3c(C)cccc3Cl)s2)cc(N2CCN(CCO)CC2)n1 [Dasatinib] (partner 0.075 µM)
Procedure, shortened: as §1

Row | Cell Line | relative viability ([1]; first compound 0.005 µM) | relative viability ([1]; first compound 0.01581 µM) | relative viability ([1]; first compound 0.05 µM) | relative viability ([1]; first compound 0.1581 µM) | relative viability ([1]; first compound 0.5 µM) | relative viability ([2]; first compound 0.005 µM) | relative viability ([2]; first compound 0.01581 µM) | relative viability ([2]; first compound 0.05 µM) | relative viability ([2]; first compound 0.1581 µM) | relative viability ([2]; first compound 0.5 µM) | relative viability ([3]; first compound 0.04 µM) | relative viability ([3]; first compound 0.1265 µM) | relative viability ([3]; first compound 0.4 µM) | relative viability ([3]; first compound 1.265 µM) | relative viability ([3]; first compound 4 µM) | relative viability ([4]; first compound 0.2 µM) | relative viability ([4]; first compound 0.6325 µM) | relative viability ([4]; first compound 2 µM) | relative viability ([4]; first compound 6.325 µM) | relative viability ([4]; first compound 20 µM)
1 | NCI-H322M | 0.689 | 0.694 | 0.478 | 0.517 | 0.393 | 0.555 | 0.567 | 0.416 | 0.424 | 0.525 | 0.267 | 0.261 | 0.244 | 0.281 | 0.238 | 0.256 | 0.244 | 0.249 | 0.237 | 0.247
2 | ABC-1 | 0.251 | 0.252 | 0.243 | 0.199 | 0.166 | 1.27 | 1.32 | 1.06 | 1.01 | 1.15 | 0.485 | 0.493 | 0.614 | 0.495 | 0.381 | 0.648 | 0.576 | 0.626 | 0.7 | 0.701
3 | LK-2 | 0.542 | 0.738 | 0.275 | 0.233 | 0.217 | 0.89 | 1.07 | 0.64 | 0.496 | 0.283 | 0.255 | 0.226 | 0.386 | 0.241 | 0.237 | 0.359 | 0.443 | 0.345 | 0.29 | 0.346
4 | NCI-H2023 | 0.451 | 0.451 | 0.343 | 0.344 | 0.144 | 0.987 | 0.753 | 0.503 | 0.22 | 0.0798 | 0.731 | 0.521 | 0.527 | 0.508 | 0.216 | 0.597 | 0.581 | 0.673 | 0.513 | 0.502
5 | NCI-H596 | 0.699 | 0.88 | 0.557 | 0.882 | 0.723 | 1.22 | 1.03 | 0.973 | 1.26 | 0.843 | 0.661 | 0.559 | 0.599 | 0.597 | 0.763 | 0.577 | 0.677 | 0.598 | 0.628 | 0.586
6 | SK-MES-1 | 0.693 | 0.59 | 0.484 | 0.441 | 0.186 | 0.529 | 0.453 | 0.374 | 0.324 | 0.285 | 0.491 | 0.251 | 0.333 | 0.224 | 0.152 | 0.337 | 0.421 | 0.366 | 0.391 | 0.425
7 | NCI-H1793 | 0.353 | 0.447 | 0.296 | 0.436 | 0.3 | 0.927 | 0.907 | 0.467 | 0.441 | 0.235 | 0.422 |  | 0.342 | 0.365 | 0.211 | 0.381 | 0.441 | 0.472 | 0.341 | 0.37
8 | NCI-H2405 | 0.426 | 0.392 | 0.387 | 0.28 | 0.284 | 1.06 | 1.14 | 1.02 | 0.927 | 0.428 | 0.226 | 0.216 | 0.22 | 0.207 | 0.208 | 0.223 | 0.212 | 0.224 | 0.211 | 0.221
9 | NCI-H460 | 0.583 | 0.533 | 0.401 | 0.307 | 0.0805 | 0.869 | 1.33 | 0.23 | 0.415 | 0.0473 | 0.707 | 0.421 | 0.496 | 0.465 | 0.361 | 0.562 | 0.526 | 0.6 | 0.461 | 0.484
10 | NCI-H1755 | 0.663 | 0.648 | 0.462 | 0.336 | 0.287 | 1.01 | 1.1 | 0.907 | 0.39 | 0.232 | 0.499 | 0.424 | 0.396 | 0.31 | 0.285 | 0.393 | 0.462 | 0.445 | 0.366 | 0.375
11 | NCI-H358 | 0.338 | 0.295 | 0.208 | 0.137 | 0.0849 | 0.466 | 0.423 | 0.374 | 0.268 | 0.279 | 0.193 | 0.135 | 0.173 | 0.152 | 0.117 | 0.155 | 0.178 | 0.18 |  | 0.164
12 | NCI-H1734 | 0.385 | 0.391 | 0.255 | 0.208 | 0.18 | 1.09 | 1.22 | 0.808 | 0.895 | 0.199 | 0.508 | 0.421 | 0.492 | 0.455 | 0.41 | 0.458 | 0.49 | 0.498 | 0.458 | 0.497
13 | EPLC-272H | 0.273 | 0.306 | 0.281 | 0.225 | 0.125 | 0.87 | 1.06 | 0.616 | 0.513 | 0.5 | 0.449 | 0.33 | 0.365 | 0.421 | 0.301 | 0.322 | 0.332 | 0.45 | 0.349 | 0.311
14 | NCI-H2126 | 0.525 | 0.565 | 0.482 | 0.412 | 0.326 | 0.821 | 0.901 | 0.613 | 0.81 | 0.552 | 0.617 | 0.531 | 0.602 | 0.549 | 0.437 | 0.624 | 0.585 | 0.597 | 0.532 | 0.577
